These results are taken from patent US6613797B2, “Xanthone analogs for treating infectious diseases and complexation of heme and porphyrins” (Interlab, Inc., priority 1999, dated 2003).

Values after ≈ are worked out from the molar mass of the structure shown. Like-named read-outs stand apart in the source and are kept apart here.

The subject of assay [1] is Leishmania donovani. The experiment in a line: anti-Leishmania activity, promastigote radiolabeled thymidine uptake assay. In kind it is cell-based. How it is done:
Leishmania donovani was cultivated in Schneider's medium (Gibco, Grand Island, N.Y.) according to the methods described by Grogl et al. (1992). The in vitro susceptibility of L. donovani to Formula X1 compounds was determined using the radiolabeled thymidine uptake assay essentially as described by Grogl et al. (1992). Briefly, promastigotes were cultivated at 25° C. in Schneider's medium supplemented with 20% inactivated fetal calf serum and 100 μg/mL of gentamicin. Cells were maintained in log phase by seeding at 1×10^6/mL with subculturing when cultured densities approached 4×10^7/mL before reaching their maximal density. For the assay, early log phase promastigotes were counted on a hemacytometer and resuspended at a concentration of 1-2×10^6 cell/mL in assay media (Schneider's medium plus 10% fetal bovine serum). Ten-fold serial dilutions of each test compound were prepared as described above and added to 180 μL of the parasite suspension. After incubation for 24 hours at 25° C., methyl-^3H-thymidine was added to each sample for a final concentration of 1-2 μCi per well. Each sample was then incubated for an additional 18 hours prior to harvesting. After this incubation time, each sample was aspirated onto a filter mat, washed thoroughly with deionized water, dried and then counted in a scintillation counter with scintillation cocktail. […]

For assay [2], the system named is Plasmodium falciparum D6 strain. Briefly: in vitro anti-malarial activity, [3H]-ethanolamine incorporation method. The assay is classed as cell-based. The conditions noted are these: Plasmodium falciparum, D6. How it is done:
Cultures were maintained at 37° C. in a gas mixture of 5% oxygen, 5% CO2, and 90% nitrogen.
[^3H]-ethanolamine was obtained from American Radiolabeled Chemicals, Inc., St. Louis, Mo. Experiments were conducted in 96 well plates in a total volume of 200 μl at a final red blood cell concentration of 2% (v/v). An initial parasitemia of 0.2 to 0.5% was attained by addition of normal uninfected red cells. Radiolabeled ethanolamine was added after 48 hours of incubation and the experiment was terminated after 72 hours by collecting the cells onto glass fiber filters with an automated multiwell harvester.
Stock solutions of the various Formula X1 compounds were dissolved in DMSO at a concentration of 1 mM and diluted in complete medium (including 10% human serum) to provide 10X stock concentrations in the range of 1 to 10,000 nM.

For assay [3], the system named is Leishmania donovani. Particulars: Table 2; literature reported value; cited from earlier work.
Assay [4] deals with malaria Plasmodium parasites. The conditions noted are these: rufigallol combined with exifone; cited from earlier work.
Assay [5] deals with intracellular amastigotes of Leishmania mexicana M379. Briefly: intracellular amastigote assay in infected murine macrophages. In kind it is cell-based. Particulars: Leishmania mexicana, Macrophage, read-out: IC50, anti-leishmanial activity. How it is done:
Bone-marrow-derived macrophages (BALB/c) were cultured with L-cell-conditioned medium for 5-7 days at 35° C. After this period of incubation, mature macrophages were transferred to Labtek 4-chamber slides containing DMEM (Dulbecco's Modified Eagle's Medium) and 10% fetal calf serum. 50,000 cells were seeded in each chamber and allowed to attach overnight at 37° C. in a humidified incubator flushed with 5% CO2. On the next day the macrophages were infected at an MOI (Multiplicity of Infection) of 10:1 with stationary promastigotes of L. mexicana. After twenty-four hours, the medium was removed and fresh medium was added containing various drug concentrations (0-5 μM). Following incubation for an additional forty-eight hours, one set of slides were fixed in methanol, dried, and stained with Giemsa stain. Fresh medium and drug were added to a parallel set of chamber slides and incubated for another 48 hours before staining. […] Microscopic inspection permitted determination of % of infected macrophages and the number of amastigotes per 100 macrophages. The IC50 value is that concentration of drug that reduces the amastigote number by 50% relative to drug-free controls. Results also were obtained in parallel fashion with macrophages.
Intracellular amastigote studies. […] Because the amastigote stage is the only relevant clinical form of the parasites, we examined the activity of the nitrogenated xanthones against the heme-auxotrophic, intracellular amastigote form of L. mexicana. Stationary promastigotes of L. mexicana M379 rapidly invaded murine peritoneal macrophages obtained from BALB/c mice and incubated at 35° C. producing heavily burdened cells with 10 to 50 amastigotes per macrophage within 24 hours. An experiment was performed to investigate the ability of selected xanthones to reduce the number of intracellular amastigotes using this model. The IC50 value is that concentration of drug required to reduce the intracellular parasite burden by 50% relative to a drug-free control chamber. We tested the xanthone series against amastigote-infected murine peritoneal macrophages. Macrophages were seeded into Labtek chamber slides (25,000 per well/8 chamber slide) and allowed to incubate overnight in Dulbecco's Modified Eagle Medium (DMEM) supplemental with 10% fetal calf serum. On the next day the cells were infected with L. mexicana promastigotes at an MOI of 5:1 and then incubated for 24 hours at 35° C. After incubation, the monolayers were washed with buffer and medium containing varying concentrations of each xanthone (0 to 10 μM) was added to each chamber. After 48 hours of incubation (i.e., Day 3 of the experiment) one set of slides was removed, fixed with methanol, and stained with Giemsa. For another set of slides, we replenished the culture medium, added fresh drug to each well as appropriate, and then incubated the chambers for another 48 hours before staining with Giemsa. IC50 values were then averaged for 3 separate experiments and the results are presented in Table 4 and graphically in FIG. 7. […] The IC50 values recorded for C5 and C6 exposure for 96 hours of treatment were 6 nM and 2 nM.

The subject of a further assay is Candida albicans. The experiment in a line: anti-Candida activity, MIC by visual inspection. The assay is classed as cell-based. Particulars: conversion of the MIC, read-out: IC50 corresponding to the MIC against Candida albicans. How it is done:
The minimum inhibitory concentration (MIC) of formula X1 compounds against a clinical isolate of Candida albicans was determined using the following method. […] The determination of this concentration is made by visual inspection; there is no visible growth in a tube containing the MIC of the formula X1 compound whereas visible growth is present in tubes containing sub-MIC concentrations of the compound.
Candida albicans was grown to midlog-phase in Luria-Bertani broth (10 grams Bacto-tryptone, 5 grams Bacto-yeast extract and 10 grams NaCl per liter) and then inoculated into sterile test tubes containing LB broth to an initial density of 10^3/ml. The formula X1 compound to be tested is dissolved in dimethylsulfoxide (DMSO) at a concentration of 1 mM and added to each tube at serial dilutions (1 μM, 10 μM, 25 μM, 50 μM, 100 μM and 0 μM). The tubes are incubated at 35° C. for 15-18 hours and then visually inspected.

Assay [6] is described as follows: in vitro heme aggregation (polymerization) assay. In kind it is biochemical. How it is done: Heme polymerization was carried out in 0.02 M phosphate buffer, pH 5.2 at 37° C. in the absence of protenis. A 10 mM stock solution of hemin chloride in 0.1 M NaOH wa prepared freshly and incuated at 37° C. for at least 1 hour to effect complete dissolution. Xanthones were dissolved in dimethylformamide at 10 mM and diluted into 10 ml of pre-warmed phosphate solution to a final concentraion of 25 μm. […] 25 μl of dimethylformaide wa added to the control smample. After 7, 30, 60, 120 and 190 minutes of incugation at 37° C., a 1 ml aliquot was withdraqwn, tranferred into an Eppendorf tube, and centrifugted at 14,000 g for 2 minutes at room temperature to pellet the precipitate. The soluble fraction was then transferred to a semi-microcuvette (polymethyacrylate, VER), and its absoprtion was measured at 360 nm against a blank of the test compound in buffer.
The reactions were allowed to proceed for 2 hours in a 37° C. waterbath. After incubation, the polymer was pelleted as described above and the absorption (360 nm) of each soluble fraction was measured against a blank containing the drug alone in buffer. The IC50 values were determined by nonlinear regression analysis of the dose-response curves of percent inhibition of heme polymerization vs. drug concentration.

The mark [7] stands for this setting: Table 1, reproduced from U.S. Pat. No. 5,977,077, read-out: IC50, μM vs. Plasmodium.
Where [8] appears, read: intracellular amastigote method.

`O=c1c2cc(O)c(O)cc2oc2cc(O)c([C@@H]3O[C@H](CO)[C@@H](O)[C@H](O)[C@H]3O)c(O)c12` [Mangiferin, reference compound]: the IC50 in the assay on Leishmania donovani [1] (Table 2, read-out: IC50 mg/ml for Leishmania) is above 0.05 mg/mL; in assay [2] (setting [7]) it was 50 µM.

Consider “Stibogluconate [Stibogluconate [Sodium Antimony (V) Gluconate]]”, for which, in the assay with Leishmania donovani [3], the “IC50 mg/ml for Leishmania” value is reported as 0.1 to 1.0 literature reported value mg/ml.

Consider `O=C1c2cc(O)c(O)c(O)c2C(=O)c2cc(O)c(O)c(O)c21` [rufigallol, 1,2,3,5,6,7,-hexahydroxy-9,10-anthraquinone], for which the “increase in potency against malaria Plasmodium parasites” value in assay [4] is on record as around 350 fold.

With `COc1c(O)cc2oc3cc(O)c(CC=C(C)C)c(O)c3c(=O)c2c1CC=C(C)C` [Mangostin, reference compound], the IC50 came to 0.00041 mg/mL (≈ 0.999 µM) in the assay on Leishmania donovani [1] (read-out: IC50 mg/ml for Leishmania), 0.41 µg/mL in assay [5], 1000 nM in assay [5] (setting [8]) and 5 µM in assay [2] (setting [7]).

For the molecule `O=c1c2ccc(O)c(O)c2oc2c(O)c(O)c(O)cc12` [2,3,4,5,6-pentahydroxyxanthone], the IC50 is around 1 µg/mL in assay [5]; around 5000 nM in assay [5] (setting [8]); around 10 µg/mL (≈ 36.2 µM) in the assay on Candida albicans; 0.4 µM in assay [2] (Table 3, read-out: IC50 μM, P. falciparum clone D6); 1.2 µM in assay [6] (Table 3, 25 μM heme, pH 5.2, 37° C., 2 hours, average of at least two determinations, read-out: IC50, μM in vitro heme polymerization); 1.2 µM in assay [6] (text b143, read-out: IC50, inhibition of heme polymerization).
